Measured values published in US9868766B2, “Peptides as oxytocin agonists” (Hoffmann-La Roche Inc., priority 2012, dated 2018).
Positions of bridges follow the written chain, without caps; N, C: chain ends. Non-standard residues stand in square brackets, D forms with d. Residues, ends and D or L forms follow the SMILES beside them. Phe(4-NH2) = Nc1ccc(C[C@H](N)C(=O)O)cc1; Cha = N[C@@H](CC1CCCCC1)C(=O)O; Nle = CCCC[C@H](N)C(=O)O; Orn = NCCC[C@H](N)C(=O)O; Sar = CNCC(=O)O

Experiments:
Format in all cases: cell-based
[1] = molecular target: T1, human Oxytocin (OTR) receptor (Homo sapiens, UniProt P30559); experiment: Calcium flux assay (FLIPR), agonist mode, CHO cells expressing human OTR; details: for EC50: CHO cells stably expressing human OTR, calcium flux, read-out: hOT EC50; for Emax: CHO, read-out: hOT efficacy (%); for Emax / hOT efficacy (%): maximum response normalized to endogenous full agonist = 100%
T1 construct: expressed in transfected cells
T1 sequence (P30559 1-389): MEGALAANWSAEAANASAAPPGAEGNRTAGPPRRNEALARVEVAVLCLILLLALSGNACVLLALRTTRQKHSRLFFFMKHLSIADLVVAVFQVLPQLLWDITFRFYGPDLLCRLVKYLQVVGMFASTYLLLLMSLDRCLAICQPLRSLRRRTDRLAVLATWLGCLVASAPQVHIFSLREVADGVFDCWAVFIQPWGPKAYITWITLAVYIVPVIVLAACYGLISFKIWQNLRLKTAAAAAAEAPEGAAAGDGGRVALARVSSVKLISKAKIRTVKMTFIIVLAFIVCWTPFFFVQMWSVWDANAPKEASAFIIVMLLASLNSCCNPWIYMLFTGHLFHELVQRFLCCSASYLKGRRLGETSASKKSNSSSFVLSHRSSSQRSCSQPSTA
Excerpt: (§1) Chines Hamster Ovary (CHO) cells were transfected with expression plasmids encoding either the human V1a, the human Oxytocin (OTR) or the humanV2 receptor, the later in combination with the chimeric Gqs5 G protein to redirect the signal to Calcium flux. Stable cells were cloned by limiting dilution to yield monoclonal cell lines expressing either human V1a, human V2+Gqs5 or human OTR receptors and selected based on functional responses detected on a fluorometric imaging plate reader (FLIPR) detecting Calcium flux in the cell after receptor activation.
On the afternoon before the assay, cells were plated at a density of 50,000 cells/well into black 96 well plates with clear bottoms to allow cell inspection and fluorescence measurements from the bottom of each well. The density of cells was sufficient to yield a confluent monolayer the next day. Hanks balanced salt solution, without phenol red, containing 20 mM HEPES (pH 7.3) and 2.5 mM probenecid (assay buffer) was prepared fresh for each experiment. Compound dilutions were made using a Beckman Biomek 2000 laboratory automation workstation, in assay buffer containing 1% DMSO. The dye-loading buffer consisted of a final concentration of 2 μM Fluo-4-AM (dissolved in DMSO and pluronic acid) in assay buffer. […] Once dye-loaded, the cells were washed thoroughly on an Embla cell washer with the assay buffer to remove any unincorporated dye. Exactly 100 μl assay buffer was left in each well.
Each 96 well plate containing dye-loaded cells was placed into the FLIPR machine and the laser intensity set to a suitable level to detect low basal fluorescence. To test compounds as agonists, 25 μl diluted compound was added to the plate 10 seconds into the fluorescent measurements and fluorescent response was recorded for 5 minutes. The fluorescence data was normalized to the endogenous full agonist dose-response set at 100% for the maximum response and 0% for the minimum. […] The concentration of agonist that produced a half-maximal response is represented by the EC50 value, the logarithm of which yielded the pEC50 value.

human V1a receptor = molecular target: T2, human V1a receptor (Homo sapiens, UniProt P37288); experiment: Calcium flux assay (FLIPR), agonist mode, CHO cells expressing human V1a; details: CHO cells stably expressing human V1a; calcium flux; read-out: hV1a EC50
T2 construct: expressed in transfected cells
T2 sequence (P37288 whole entry): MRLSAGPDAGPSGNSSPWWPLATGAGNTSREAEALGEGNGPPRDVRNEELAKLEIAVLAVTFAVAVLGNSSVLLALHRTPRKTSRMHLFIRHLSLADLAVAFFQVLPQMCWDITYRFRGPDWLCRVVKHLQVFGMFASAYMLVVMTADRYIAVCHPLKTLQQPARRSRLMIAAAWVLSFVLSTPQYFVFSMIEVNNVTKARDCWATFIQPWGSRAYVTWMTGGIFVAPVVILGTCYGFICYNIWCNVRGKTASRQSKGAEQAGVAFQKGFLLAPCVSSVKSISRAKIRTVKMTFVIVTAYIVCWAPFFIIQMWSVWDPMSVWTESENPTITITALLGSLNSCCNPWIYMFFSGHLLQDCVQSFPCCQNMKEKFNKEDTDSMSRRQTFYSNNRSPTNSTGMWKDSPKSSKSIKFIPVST
Excerpt: as §1, with “activation. The stable cell lines were grown in F-12 K Nutrient Mixture (Kaighns Modification), containing 10% foetal bovine serum (FBS), 1% penicillin-streptomycin, 1% L-glutamate, 200 ug/ml Geneticin at 37° C. in a 10% CO2 incubator at 95% humidity.” for “activation.”
(§2) On the afternoon before the assay, cells were plated at a density of 50,000 cells/well into black 96 well plates with clear bottoms to allow cell inspection and fluorescence measurements from the bottom of each well. The density of cells was sufficient to yield a confluent monolayer the next day. Hanks balanced salt solution, without phenol red, containing 20 mM HEPES (pH 7.3) and 2.5 mM probenecid (assay buffer) was prepared fresh for each experiment. Compound dilutions were made using a Beckman Biomek 2000 laboratory automation workstation, in assay buffer containing 1% DMSO. The dye-loading buffer consisted of a final concentration of 2 μM Fluo-4-AM (dissolved in DMSO and pluronic acid) in assay buffer. The existing culture media was removed from the wells and 100 μl of the dye-loading buffer was added to each well and incubated for approximately 60 min at 37° C. in a 5% CO2 incubator at 95% humidity. Once dye-loaded, the cells were washed thoroughly on an Embla cell washer with the assay buffer to remove any unincorporated dye. Exactly 100 μl assay buffer was left in each well.
(§3) Each 96 well plate containing dye-loaded cells was placed into the FLIPR machine and the laser intensity set to a suitable level to detect low basal fluorescence. To test compounds as agonists, 25 μl diluted compound was added to the plate 10 seconds into the fluorescent measurements and fluorescent response was recorded for 5 minutes. The fluorescence data was normalized to the endogenous full agonist dose-response set at 100% for the maximum response and 0% for the minimum. Each agonist concentration-response curve was constructed using a four parameter logistic equation with Microsoft Excel XLFit as follows: Y=Minimum+((Maximum−Minimum)/(1+10^(Log EC50-X)nH)), where y is the % normalized fluorescence, minimum is the minimum y, maximum is the maximum y, log EC50 is the log10 concentration which produces 50% of the maximum induced fluorescence, x is the log10 of the concentration of the agonist compound and H is the slope of the curve (the Hill Coefficient). The maximum value gives the efficacy of the agonist test compound in percentage. The concentration of agonist that produced a half-maximal response is represented by the EC50 value, the logarithm of which yielded the pEC50 value.

human V2 receptor = molecular target: T3, human V2 receptor (Homo sapiens, UniProt P30518); experiment: Calcium flux assay (FLIPR), agonist mode, CHO cells expressing human V2 + Gqs5; details: for EC50: CHO cells stably expressing human V2 + chimeric Gqs5, calcium flux, read-out: hV2 EC50; for Emax: CHO, maximum response normalized to endogenous full agonist = 100%, read-out: hV2 efficacy (%)
T3 construct: expressed in transfected cells
T3 sequence (P30518 whole entry): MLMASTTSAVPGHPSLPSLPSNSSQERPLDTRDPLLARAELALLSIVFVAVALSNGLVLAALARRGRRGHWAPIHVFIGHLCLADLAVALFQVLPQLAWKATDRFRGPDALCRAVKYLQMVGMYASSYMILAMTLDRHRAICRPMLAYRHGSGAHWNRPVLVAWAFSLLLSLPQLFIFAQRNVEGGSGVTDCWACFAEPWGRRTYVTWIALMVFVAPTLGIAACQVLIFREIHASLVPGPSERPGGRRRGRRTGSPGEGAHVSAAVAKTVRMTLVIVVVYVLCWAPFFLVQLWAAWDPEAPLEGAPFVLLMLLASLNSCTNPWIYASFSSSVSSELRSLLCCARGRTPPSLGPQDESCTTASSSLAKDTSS
Excerpt: as §1, with “activation. The stable cell lines were grown in F-12 K Nutrient Mixture (Kaighns Modification), containing 10% foetal bovine serum (FBS), 1% penicillin-streptomycin, 1% L-glutamate, 200 ug/ml Geneticin at 37° C. in a 10% CO2 incubator at 95% humidity.” for “activation.”
as §2, §3

Compound | EC50 [1] [nM] | Emax [1] [%] | EC50 (human V1a receptor) [nM] | EC50 (human V2 receptor) [nM] | Emax (human V2 receptor) [%] | hOT efficacy (%) [1] [%]
CC[C@H](C)[C@@H]1NC(=O)[C@H](Cc2ccc(O)cc2)NC(=O)CNC(=O)CC[C@@H](C(=O)N(C)CC(=O)N[C@@H](CCC(N)=O)C(=O)NCC(N)=O)NC(=O)[C@H](CC(N)=O)NC(=O)[C@H](CCC(N)=O)NC1=O [Example 31] (GYIQNE[Sar]QG-NH2; lactam N-6) | 9 | 131 | > 10000 | 2710 | 91 | –
CCCC[C@H](NC(=O)CN(C)C(=O)[C@@H]1CCC(=O)NCC(=O)N[C@@H](Cc2ccc(O)cc2)C(=O)N[C@@H]([C@@H](C)CC)C(=O)N[C@@H](CCC(N)=O)C(=O)N[C@@H](CC(N)=O)C(=O)N1)C(=O)NCC(N)=O [Example 40] (GYIQNE[Sar][Nle]G-NH2; lactam N-6) | 0.4 | 124 | > 27000 | 2190 | 117 | –
CC[C@H](C)[C@@H]1NC(=O)[C@H](Cc2ccc(O)cc2)NC(=O)CNC(=O)CC[C@@H](C(=O)N(C)CC(=O)N[C@@H](CC2CCCCC2)C(=O)NCC(N)=O)NC(=O)[C@H](CC(N)=O)NC(=O)[C@H](CCC(N)=O)NC1=O [Example 39] (GYIQNE[Sar][Cha]G-NH2; lactam N-6) | 0.4 | 122 | > 27000 | 3710 | 111 | –
CC[C@H](C)[C@H](NC(=O)CN(C)C(=O)[C@@H]1CCC(=O)NCC(=O)N[C@@H](Cc2ccc(O)cc2)C(=O)N[C@@H]([C@@H](C)CC)C(=O)N[C@@H](CCC(N)=O)C(=O)N[C@@H](CC(N)=O)C(=O)N1)C(=O)NCC(N)=O [Example 33] (GYIQNE[Sar]IG-NH2; lactam N-6) | 2 | 119 | > 27000 | 3820 | 101 | –
CC[C@H](C)[C@@H]1NC(=O)[C@H](Cc2ccc(O)cc2)NC(=O)CNC(=O)CC[C@@H](C(=O)N2CCC[C@H]2C(=O)N[C@@H](C)C(=O)NCC(N)=O)NC(=O)[C@H](CC(N)=O)NC(=O)[C@H](CCC(N)=O)NC1=O [Example 18] (GYIQNEPAG-NH2; lactam N-6) | 24 | – | > 12000 | – | – | 91
CC[C@H](C)[C@@H]1NC(=O)[C@H](Cc2ccc(O)cc2)NC(=O)CNC(=O)CC[C@@H](C(=O)N2CCC[C@H]2C(=O)N[C@@H](CC(C)C)C(=O)NCC(N)=O)NC(=O)[C@H](CC(N)=O)NC(=O)[C@H](CCCN)NC1=O [Example 20] (GYI[Orn]NEPLG-NH2; lactam N-6) | 40 | – | > 12000 | – | – | –
CC[C@H](C)[C@@H]1NC(=O)[C@H](Cc2ccc(N)cc2)NC(=O)CNC(=O)CC[C@@H](C(=O)N2CCC[C@H]2C(=O)N[C@@H](CC(C)C)C(=O)NCC(N)=O)NC(=O)[C@H](CC(N)=O)NC(=O)[C@H](CCC(N)=O)NC1=O [Example 10] (G[Phe(4-NH2)]IQNEPLG-NH2; lactam N-6) | 17 | – | > 2700 | – | – | 91
